Source: patent US12178837B2, “Composition for skin-whitening or preventing or improving skin wrinkles comprising green tea extract which has modified amounts of ingredients” (AMOREPACIFIC CORPORATION, priority 2019, dated 2024)

Test system: MMP-1 (matrix metalloproteinase-1)
Experiment: MMP-1 inhibition activity: ELISA of MMP-1 produced by aged human dermal fibroblasts
Format: cell-based
Conditions: EGCG + GCG total 3 μg/ml at the given weight ratio
Method: The evaluation on MMP-1 inhibition activity was conducted in order to verify the effects of the green tea extracts of Samples 1 and 2 of Example 1 in inhibiting the production of MMP-1, which is skin tissue breakdown enzyme, in human skin fibroblast of aged human skin and in inhibiting the production of MMP-1 according to the weight ratio of EGCG and GCG, and the amount of GCG. To be specific, the evaluation was conducted through the following steps.
Normal human dermal fibroblast (NHDF; Lonza, Switzerland) was cultured in a DMEM medium (Dulbecco's modified Eagle's Medium, Gibco 1210-0038) comprising 10% of fetal bovine serum, and the culturing was all performed in a 37° C., 5% CO2 culture medium. Cells that had 6-9 sub-culture frequencies were used as young cells, and aged dermal fibroblasts were obtained by sub-culturing 37 times in such a manner that the number of cells was calculated for every sub-culture and then ⅕ of the total number of cells were newly cultured. The aged dermal fibroblasts were treated with EGCG and GCG depending on the ratio of EGCG:GCG and the concentration of GCG, or treated with Sample 1 or Sample 2.
In order to verify the amount of MMP-1 produced, the enzyme-linked immunosorbent assay (ELISA) method was used (Amersham, USA). The culture medium of the cells treated with the samples at the step 1-1 was collected and the supernatant was isolated by centrifuging at 1000×g, and then the culture medium was put into a 96-well plate coated with an MMP-1 antibody, and then a secondary antibody (horse reddish peroxidase, HRP) was reacted at room temperature for 1 hour, and washed with 100 μL PBS. The amount of MMP-1 produced was confirmed by measuring absorbance at a 490 nm wavelength after reaction and confirming its degree of color formation using a TMB substrate solution (Pierce, USA), and the MMP-1 inhibition activity (%) was calculated using the following equation.
MMP-1 inhibition activity (%)=(O.D. of the group treated with the sample at 490 nm/O.D. of the group not treated with sample at 490 nm)×100

| Molecule | MMP-1 inhibition activity (%) Processed after 24 hours [%] | MMP-1 inhibition activity (%) Processed immediately [%] |
| --- | --- | --- |
| (−)-epigallocatechin gallate [EGCG] | 6 ± 1.0 | 56 ± 9.7 |
| O=C(O[C@@H]1Cc2c(O)cc(O)cc2O[C@H]1c1cc(O)c(O)c(O)c1)c1cc(O)c(O)c(O)c1 [GCG, (−)-gallocatechin gallate] | 10 ± 1.0 | 55 ± 9.2 |
